Source: PubChem BioAssay (NCI)
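How tested: cells in 96-well plates exposed to compound for 48 hours at five concentrations. Definition used: TGI = concentration required for complete inhibition of growth.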

Columns and labels:
Experiment in all cases: NCI anticancer screen, dose series, 48 h
[1] = system: NCI-H522 lung
[2] = system: NCI-H226 lung
[3] = system: HCT-116 colon
[4] = system: SR leukemia
[5] = system: OVCAR-8 ovarian
[6] = system: SN12C renal

`O=C1c2ccccc2C(=O)N1c1ccc(OCCN2CCCCC2)cc1` gave a TGI [1] of over 100 µM, a TGI [2] of over 100 µM and a TGI [3] of over 100 µM. For the same compound, the TGI [4] was over 100 µM, the TGI [5] was over 100 µM and the TGI [6] was over 100 µM.

Work on `CC1OC(=O)c2ccccc2NC1=O` (stereo not drawn) yielded a TGI [1] of over 100 µM, a TGI [2] of over 100 µM and a TGI [3] of over 100 µM. The TGI [4] was over 100 µM, the TGI [5] was over 100 µM and the TGI [6] was over 100 µM.

For `CN1CCN(c2ccc3[nH]c(C4=C(O)c5nc(CO)n(C)c5C(=O)C4=O)nc3n2)CC1`, the TGI [1] was over 100 µM, the TGI [2] was over 100 µM and the TGI [3] was over 100 µM. It also gave a TGI [5] of over 100 µM and a TGI [6] of over 100 µM.

With `N#Cc1c(-c2ccc(Cl)cc2)c(C#N)c(=O)n(NS(=O)(=O)c2ccccc2)c1-c1ccccc1` the TGI [3] was over 25 µM and the TGI [6] was over 25 µM.

`CCC(=O)NCCc1c[nH]c2ccc(OC)cc12` gave a TGI [1] of over 100 µM, a TGI [2] of over 100 µM and a TGI [3] of over 100 µM. For the same compound, the TGI [4] was over 100 µM, the TGI [5] was over 100 µM and the TGI [6] was over 100 µM.

For `O=C(NC(Nc1ccc(F)c(Cl)c1)(C(F)(F)F)C(F)(F)F)C(C(F)(F)F)C(F)(F)F`, the TGI [1] was 44.8 µM, the TGI [2] was 64.7 µM and the TGI [3] was 41.7 µM. It also gave a TGI [4] of over 100 µM, a TGI [5] of over 100 µM and a TGI [6] of over 100 µM.

Compound `Fc1ccc(C(OCCN2CCC3CCC(C2)N3Cc2cc3ccccc3[nH]2)c2ccc(F)cc2)cc1` (stereo not drawn) has a TGI [1] of 2.84 µM, a TGI [2] of 3.41 µM and a TGI [3] of 2.6 µM. The TGI [5] was 3.1 µM and the TGI [6] was 3.05 µM.

`CCCCCCCSCC(O)COC(c1ccccc1)(c1ccccc1)c1ccccc1` (stereo not drawn) showed a TGI [1] of over 100 µM, a TGI [2] of 85 µM and a TGI [3] of over 100 µM. For the same compound, the TGI [4] was 85.4 µM, the TGI [5] was over 100 µM and the TGI [6] was over 100 µM.

Compound `CC(C)[Si](OC1=CCCCCC12C(=O)N(C)c1ccccc12)(C(C)C)C(C)C` (stereo not drawn) has a TGI [1] of 33.7 µM, a TGI [2] of 39 µM and a TGI [4] of 67.3 µM. It also gave a TGI [5] of 44.6 µM.

Work on `CC1(C)CCc2c(c(N=Nc3ccccc3)c3ccccc3c2O)O1` yielded a TGI [1] of over 100 µM, a TGI [2] of over 100 µM and a TGI [3] of 51.2 µM. It also gave a TGI [5] of over 100 µM and a TGI [6] of 40.1 µM.

With `C[C@@H]1OC(=O)C[C@H]2CC(=O)N(CCc3cn(S(=O)(=O)C(F)(F)F)c4ccccc34)C[C@@H]21` the TGI [1] was over 100 µM, the TGI [3] was over 100 µM and the TGI [5] was over 100 µM.

Work on `CSC(=NCCN=C(NS(=O)(=O)c1ccc(Cl)cc1)SC)NS(=O)(=O)c1ccc(Cl)cc1` yielded a TGI [3] of over 100 µM, a TGI [4] of over 100 µM and a TGI [5] of over 100 µM. For the same compound, the TGI [6] was over 100 µM.

For `CSc1c(C#N)c2n(c3ccccc3[n+]2C)c2ncccc12`, the TGI [1] was 48.6 µM, the TGI [2] was 49.9 µM and the TGI [3] was over 100 µM. For the same compound, the TGI [4] was over 100 µM, the TGI [5] was 73.4 µM and the TGI [6] was 67.5 µM.

`Cc1[nH]c2ccccc2c1C=Nc1ccc(Oc2ccccc2)cc1` was tested, and the TGI [1] was 31.6 µM, the TGI [3] was 31.3 µM and the TGI [4] was 51 µM. It also gave a TGI [5] of 43.4 µM and a TGI [6] of 31.9 µM.

Compound `O=C1OC(CN2CCN(c3ccccc3)CC2)CN1C(=S)Nc1ccccc1` (stereo not drawn) has a TGI [1] of over 100 µM, a TGI [2] of over 100 µM and a TGI [3] of over 100 µM. It also gave a TGI [4] of over 100 µM, a TGI [5] of over 100 µM and a TGI [6] of over 100 µM.

For `CCC1(C)N=C(C(N)=O)c2ncn(N=C(C)C)c2N1` (stereo not drawn), the TGI [1] was over 100 µM, the TGI [2] was over 100 µM and the TGI [3] was over 100 µM. The TGI [4] was over 100 µM, the TGI [5] was over 100 µM and the TGI [6] was over 100 µM.

`O=C(NCc1ccccc1)c1cnc(Cl)cn1` showed a TGI [1] of 4.35 µM, a TGI [2] of over 100 µM and a TGI [3] of over 100 µM. It also gave a TGI [4] of 69.8 µM, a TGI [5] of over 100 µM and a TGI [6] of over 100 µM.

Work on `O=C(/C=C/c1ccc(Cl)c(Cl)c1)Oc1ccc(/C=C2\CCCCC2=O)cc1` yielded a TGI [1] of over 100 µM, a TGI [3] of over 100 µM and a TGI [4] of over 100 µM. It also gave a TGI [5] of over 100 µM and a TGI [6] of over 100 µM.

`O=C(/C=C/c1ccc(O)c(O)c1)OCCOC(=O)/C=C/c1ccc(O)c(O)c1` was tested, and the TGI [1] was 46.9 µM, the TGI [2] was 96.3 µM and the TGI [3] was 46.7 µM. It also gave a TGI [4] of 58.9 µM, a TGI [5] of over 100 µM and a TGI [6] of 65.1 µM.

Work on `CC(C)(C)OC(=O)N1CCC23CCCC2C(=O)CC=C13` (stereo not drawn) yielded a TGI [1] of over 100 µM, a TGI [2] of over 100 µM and a TGI [3] of over 100 µM. It also gave a TGI [4] of over 100 µM, a TGI [5] of over 100 µM and a TGI [6] of over 100 µM.

With `Nc1ncc(Cc2nc3ccccc3s2)s1` the TGI [1] was over 100 µM, the TGI [2] was 92.8 µM and the TGI [3] was over 100 µM. For the same compound, the TGI [5] was over 100 µM and the TGI [6] was over 100 µM.

`O=[N+]([O-])C1(C2([N+](=O)[O-])CCCC2)CCCC1` was tested, and the TGI [1] was over 100 µM, the TGI [2] was over 100 µM and the TGI [3] was over 100 µM. It also gave a TGI [4] of over 100 µM, a TGI [5] of over 100 µM and a TGI [6] of over 100 µM.

`CCCc1c2c3ccccc3nc-2nc2ccccn12` showed a TGI [1] of over 100 µM, a TGI [4] of over 100 µM and a TGI [5] of over 100 µM. It also gave a TGI [6] of over 100 µM.

In the case of `S=C1C=C(c2ccccc2)Sc2ccccc2N1`, the TGI [1] is reported as over 100 µM, the TGI [2] is reported as over 100 µM and the TGI [3] is reported as over 100 µM. The TGI [4] was over 100 µM, the TGI [5] was over 100 µM and the TGI [6] was over 100 µM.

Compound `NNC(=O)c1n[nH]nc1SSc1n[nH]nc1C(=O)NN` has a TGI [1] of over 100 µM, a TGI [2] of over 100 µM and a TGI [3] of over 100 µM. For the same compound, the TGI [5] was over 100 µM and the TGI [6] was over 100 µM.

For `Cn1c(=O)n(CC(Br)CBr)c(=O)n(CC(Br)CBr)c1=O` (stereo not drawn), the TGI [1] was over 100 µM, the TGI [2] was 58.9 µM and the TGI [3] was 79.3 µM. The TGI [4] was 37.4 µM, the TGI [5] was over 100 µM and the TGI [6] was 67.3 µM.

With `NC(CCCCNc1ccn(C2OC(CO)C(O)C2O)c(=O)n1)C(=O)O` (stereo not drawn) the TGI [1] was over 100 µM, the TGI [2] was over 100 µM and the TGI [4] was over 100 µM. For the same compound, the TGI [5] was over 100 µM and the TGI [6] was over 100 µM.

`CC(=O)c1cn(-c2ccc(Cl)cc2)c(=O)c2c(N)n[nH]c12` gave a TGI [2] of over 100 µM, a TGI [3] of over 100 µM and a TGI [4] of over 100 µM. For the same compound, the TGI [5] was over 100 µM.

`COC(=O)C1=C(O)C(C(=O)OC)[C@]2(O)[C@H](C(=O)OC)[C@H]1C[C@@H](c1ccc(OC)cc1)[C@H]2C(=O)OC` (stereo partly drawn) gave a TGI [1] of 17.7 µM, a TGI [2] of over 100 µM and a TGI [3] of 38.5 µM. For the same compound, the TGI [4] was 86.1 µM, the TGI [5] was over 100 µM and the TGI [6] was 53.9 µM.

`COC/C=C\[C@@]1(O)CCCC[C@@H]1CC(OC)OC` was tested, and the TGI [1] was 38.4 µM, the TGI [2] was over 100 µM and the TGI [3] was over 62.7 µM. It also gave a TGI [4] of 98.9 µM, a TGI [5] of over 85.8 µM and a TGI [6] of 43.7 µM.

Work on `CC(Cc1ccc(O)c(O)c1)C(C)Cc1ccc(O)c(O)c1` (stereo not drawn) yielded a TGI [1] of 4.91 µM, a TGI [2] of 59.8 µM and a TGI [3] of 34.2 µM. It also gave a TGI [4] of over 74.3 µM, a TGI [5] of 33.6 µM and a TGI [6] of over 51.6 µM.

Work on `S=C(Nc1ccc(Br)cn1)NC12CC3CC(CC(C3)C1)C2` yielded a TGI [1] of 37.5 µM, a TGI [2] of 64.8 µM and a TGI [3] of 35.3 µM. It also gave a TGI [4] of over 100 µM and a TGI [5] of 25.9 µM.
